We go through eleven compounds from ChEMBL document CHEMBL4308849, “Antimalarial Lead-Optimization Studies on a 2,6-Imidazopyridine Series within a Constrained Chemical Space To Circumvent Atypical Dose-Response Curves against Multidrug Resistant Parasite Strains” (J Med Chem, 2018).

Data set [1] in a line: Metabolic stability in mouse liver microsomes assessed as parent compound remaining at 0.1 uM after 60 mins in presence of NADPH by LC-MS/MS analysis. It is filed as ADME, Microsome. As to conditions: read-out: Stability.
Data set [2] in a line: Metabolic stability in rat liver microsomes assessed as parent compound remaining at 0.1 uM after 60 mins in presence of NADPH by LC-MS/MS analysis. It is filed as ADME, Microsome. As to conditions: read-out: Stability. For orientation: Liver microsomes are a subcellular fraction often used to study metabolism.
A short description of data set [3]: Metabolic stability in human liver microsomes assessed as parent compound remaining at 0.1 uM after 60 mins in presence of NADPH by LC-MS/MS analysis. The class given is ADME, Microsome. As to conditions: read-out: Stability.
Data set [4] can be described thus: Volume of distribution in Balb/c mouse at 2 mg/kg, iv by LC-MS/MS analysis. It is filed as ADME, organism-based. As to conditions: in vivo.
Data set [5] in a line: Oral bioavailability in Balb/c mouse at 20 mg/kg by LC-MS/MS analysis. The class given is ADME, organism-based. As to conditions: in vivo.
A short description of data set [6]: AUC (0 to infinity) in Balb/c mouse at 2 mg/kg, iv by LC-MS/MS analysis. It is filed as ADME, organism-based. The arrangement: dose 2 mg/kg, route intravenous, time infinity. As to conditions: in vivo.
Data set [7] is described as follows: AUC (0 to infinity) in Balb/c mouse at 20 mg/kg, po by LC-MS/MS analysis. It is filed as ADME, organism-based. As to conditions: in vivo. Set-up: dose 20 mg/kg, route oral, time infinity.
Data set [8] can be described thus: Tmax in Balb/c mouse at 20 mg/kg, po by LC-MS/MS analysis. As to conditions: in vivo. It is filed as ADME, organism-based.
The nature of data set [9]: Blood clearance in Balb/c mouse at 2 mg/kg, iv by LC-MS/MS analysis. The class given is ADME, organism-based. As to conditions: whole blood.
Data set [10] is described as follows: Cmax in Balb/c mouse at 20 mg/kg, po by LC-MS/MS analysis. It is filed as ADME, organism-based. The arrangement: dose 20 mg/kg, route oral. As to conditions: in vivo.
Data set [11] can be described thus: Half life in Balb/c mouse at 2 mg/kg, iv by LC-MS/MS analysis. The class given is ADME, organism-based. As to conditions: in vivo.

Take `Fc1ccc(-c2nc3cnc(Nc4ccc(N5CCN(CC6CC6)CC5)cn4)cc3[nH]2)cc1C(F)(F)F`: the remaining at 1 h, 0.1 µM in data set [1] is 41%; in data set [2], 36%; in data set [3] it was 52%.

In the case of `Fc1ccc(Nc2cc3[nH]c(Nc4ccc(N5CCNCC5)cn4)nc3cn2)cc1C(F)(F)F`, the results for the remaining at 1 h, 0.1 µM in data set [1], in data set [2] and in [3] were 55%, 59% and 92%, respectively.

As for `O=C(c1ccnc(Nc2cc3[nH]c(-c4ccc(F)c(C(F)(F)F)c4)nc3cn2)c1)N1CCN(C2CC2)CC1`, the remaining at 1 h, 0.1 µM was 93% in [1], 53% in [2] and 77% in data set [3].

For `Fc1ccc(-c2nc3cnc(Nc4ccc(C5CCNCC5)cn4)cc3[nH]2)cc1F`, the remaining at 1 h, 0.1 µM in data set [1] is 87%; in data set [2], 97%; in [3] it was 98%.

With `CC(C)CN1CCN(c2ccc(Nc3cc4[nH]c(C5CCC(F)(F)CC5)nc4cn3)nc2)CC1`, the remaining at 1 h, 0.1 µM in [1] came out at 61%; in [2] it was 64%; in [3] it was 59%.

Regarding `FC(F)(F)c1ccc(-c2nc3cnc(Nc4ccc(N5CCN(CC6CC6)CC5)cn4)cc3[nH]2)cn1`, the remaining at 1 h, 0.1 µM is 68% in data set [1], 55% in data set [2] and 93% in [3].

In the case of `Fc1ccc(-c2nc3cnc(Nc4ccc(N5CCN(CC6CC6)CC5)cn4)cc3[nH]2)cc1F`, the remaining at 1 h, 0.1 µM in data set [1] was 14%; in data set [2], 9%; in data set [3], 7%.

As for `Fc1ccc(Nc2cc3[nH]c(Nc4cc(N5CCNCC5)ccn4)nc3cn2)cc1C(F)(F)F`, the remaining at 1 h, 0.1 µM in [1] amounted to 78%; in data set [2] it was 73%; in data set [3] it was 98%.

As to `CC(C)(C)N1CCN(C(=O)c2ccnc(Nc3cc4[nH]c(-c5cccc(C(F)(F)F)c5)nc4cn3)c2)CC1`, the Vd in [4] is 117 L/kg. Also, in data set [5], the bioavailability was determined as 2%. Besides, the total exposure AUC(0-inf) in [6] was 0.933 µM·h; in [7] it was 0.2 µM·h. Besides, the figures for the remaining at 1 h, 0.1 µM in [1], in data set [2] and in data set [3] were 26%, 48% and 65%, respectively. In data set [8], the time to peak (Tmax) was 30 min. In data set [9], this compound registered a clearance of 68 mL/min/kg. In data set [10], this compound came in with a Cmax of 40 nM. This compound showed a half-life in [11] of 1140 min.

With `FC1(F)CC(c2nc3cnc(Nc4ccc(N5CCN(CC6CC6)CC5)cn4)cc3[nH]2)C1`, the remaining at 1 h, 0.1 µM stood at 54% in [1], 52% in data set [2] and 86% in data set [3].

With `Fc1ccc(-c2nc3cnc(Nc4ccc(N5CCNCC5)cn4)cc3[nH]2)cc1F`, the remaining at 1 h, 0.1 µM in [1] turned out to be 75%; in data set [2] it was 73%; in [3] it was 92%.

What is called Vd is a proportionality between amount in the body and measured concentration, not a real space. The bioavailability is dose-corrected exposure relative to a reference, in per cent. Low readings indicate poor availability, high ones good availability. Broadly, the AUC(0-inf) is the area under the concentration-time curve extrapolated to infinity. The term Tmax denotes the time at which the peak concentration occurs. One may read the clearance as the rate of elimination divided by the concentration. Read a high clearance as a high capacity for elimination. For orientation: Cmax means the maximum level reached in the sampled fluid or tissue. In general, half-life refers to the time in which the quantity being followed falls by half.
